We go through one compound from patent US20030191144A1, “Compounds, compositions and methods for modulating beta-amyloid production” (Active Pass Pharmaceuticals, Inc., priority 2001, published 2003).

The test system of this test is Aβ40 production and/or release from SM-4 cells. The test can be described thus: Aβ40 ELISA of culture media from SM-4 cells. In kind it is cell-based. Particulars: 10-500 μM, 16 hrs. On the procedure:
Cell Lines and Pharmacological Treatments. 293 EBNA cells (InVitrogen, Carlsbad, Calif.) stably transfected with Swedish mutant β-Amyloid Precursor Protein -695 (SM4 cells) were routinely maintained in DMEM supplemented with sodium pyruvate (1 mM) and 10% fetal bovine serum. Cells were seeded into poly-D-Lysine (SIGMA) coated 6-well plates at a density of 5-7×10^5 cells per well. Subsequently, the cells were rinsed in 1 ml of PBS and treated with 10-500 μM of pirinixic acid in serum-free/phenol red-free DMEM for 16 hours. Aβ Detection and Standardization. After the pharmacological treatment, the exposure media was collected and supplemented with 10% sample treatment buffer (40 mM sodium phosphate (pH 7.4), 40 mM triethanolamine, 0.1% Triton X-100, 200 mM NaCl, 2 mM EGTA, 0.1% Sodium azide), and assayed for either Aβ40 or Aβ42 by a calorimetric ELISA as per the manufacturer's protocol (Biosource International Inc, California). The cells were lysed in 0.1% Triton X-100 in PBS supplemented with 5 μM propridium iodide (Molecular Probes, Eugene, Oreg.) and incubated at 37° C. for 30 minutes prior to measuring fluorescence. Aβ40 and Aβ42 were standardized against propridium iodide fluorescence as a measure of total cell number. 293 EBNA cells (InVitrogen, Carlsbad, Calif.) stably transfected with Swedish mutant β-Amyloid Precursor Protein -695 (SM4 cells) were routinely maintained in DMEM supplemented with sodium pyruvate (1 mM) and 10% fetal bovine serum. […] The cells were lysed in 0.1% Triton X-100 in PBS supplemented with 5 μM propridium iodide (Molecular Probes, Eugene, Oreg.) and incubated at 37° C. for 30 minutes prior to measuring fluorescence. Aβ40 and Aβ42 were standardized against propridium iodide fluorescence as a measure of total cell number. […] The cells were lysed in 0.1% Triton X-100 in PBS supplemented with 5 μM propridium iodide (Molecular Probes, Eugene, Oreg.) and incubated at 37° C. for 30 minutes prior to measuring fluorescence. Aβ40 and Aβ42 were standardized against propridium iodide fluorescence as a measure of total cell number.
(In general: ELISA stands for enzyme-linked immunosorbent assay.)

As to `Cc1cccc(Nc2cc(Cl)nc(SCC(=O)O)n2)c1C` [pirinixic acid], the “change in Aβ40 production and/or release” value was “no significant change”.
